Holding throughout (assay type): in vivo, rat
The subject of assay [1] is PI-IBS rats. Description: Abdominal withdrawal reflex (AWR) test: pain threshold pressure to colorectal distension. The protocol: Sprague-Dawley male rats (Laboratory Animal Services Centre, The Chinese University of Hong Kong) aged 6 weeks with body weight around 220 g are used to develop PI-IBS model. Briefly, rats are fasted for 24 h, and deeply anesthetized with chloral hydrate (350 mg.kg^−1, i.p.). After induction of colitis by 2,4,6-trinitrobenzenesulfonic acid solution (TNBS, 5 mg/0.8 ml/rat, in 50% ethanol, 8 cm from anus) administration, the rats are allowed to recover for at least 4 weeks before use. The control rats are similarly administered with 0.8 ml saline instead of TNBS. Only the rats that have completely recovered from the initial inflammation and acquired visceral hypersensitivity are used as the PI-IBS rats.
6 groups of 12 rats are tested. Normal rats (Group 1) are treated with water. PI-IBS rats are randomly divided into 5 groups and orally treated with water (Group 2), Doxantrazole (mast cell stabilizer, 30 mg/kg/d, Group 3), and Quercetin (Group 4-6) at the dose of 5, 10, and 20 mg/kg/d, respectively. After 2 weeks daily drug administration, 5 rats in each group are used to measure pain threshold pressure by abdominal withdrawal reflex (AWR) test, and the remaining […] is used for electromyography (EMG) recording.
AWR test is performed as previously described in Al-Chaer E D, Kawasaki M, Pasricha P J. A new model of chronic visceral hypersensitivity in adult rats induced by colon irritation during postnatal development. Gastroenterology. 2000 November; 119(5):1276-85. Briefly, rats are lightly anesthetized with ether; a latex balloon is inserted into the descending colon. Rats are then allowed to recover for about 1 h. The tube of the balloon is connected via a Y-connector to a sphygmomanometer and colorectal distension is applied in increments of 5 mmHg until a visible contraction of the abdominal wall is observed by an investigator blinded to the treatment. The pain threshold pressure is defined as the intensity of colorectal distension (CRD) that elicited an observable AWR, i.e. a sudden and persistent abdominal muscle contraction with abdomen lift off the platform. The pain threshold pressure of all groups is recorded and repeated five times with intervals of at least 5 minutes for recovery. EMG recording are conducted as previously described in Tammpere A, Brusberg M, Axenborg J, Hirsch I, Larsson H, Lindstrom E. Evaluation of pseudo-affective responses to noxious colorectal distension in rats by manometric recordings. Pain. 2005 August; 116(3):220-6 and Li Z, Zhang X J, Xu H X, Sung J J, Bian Z X. Intracolonical administration of protease-activated receptor-2 agonists produced visceral hyperalgesia by up-regulating serotonin in the colon of rats. Eur J. Pharmacol. 2009 Mar. 15; 606(1-3):199-204. Firstly, a surgical operation is made to implant the electrodes into the left external abdominal oblique muscles 7 days before EMG recording. After the last drug administration, a flexible latex balloon is inserted into the rat descending colon, and the rats are allowed to accommodate for 1 h. CRD is initiated, and the EMG signal is amplified and filtered by Power Lab System. Graded colorectal distension (20, 40, 60, and 80 mmHg; 20 s duration; 2 min inter-stimulus interval) is carried out for total three cycles to each rat. The changes of area under the curve (AUC) are calculated using that during 20 s distension period over the 20 s baseline.

The subject of assay [2] is PI-IBS rats. The assay is described as follows: Colonic tissue 5-HT content (capillary electrophoresis, laser-induced fluorescence). The conditions noted are these: 30 mg/kg i.g. The protocol: (§1) Six groups of 5 rats are tested. The groups setting and treatments are as described in Example 1. Different from Example 1, AWR test are not applied to the rats in this experiment in order to obtain the basal data without CRD stimulus. After the last drug administration, a 6 cm proximal colon (1-2 cm from caecum) is collected and divided into 3 parts, the proximal is fixed in 4% paraformaldehyde and embedded in paraffin for EC cell staining; the middle part is collected for 5-HT content measurement and electron microscopic evaluation, and the distal part is for western blotting analysis.
(§2) 5-HT content in the colon tissue is assayed based on our previously reported procedure in Qi S D, Tian S L, Xu H X, Sung J J, Bian Z X. Quantification of luminally released serotonin in rat proximal colon by capillary electrophoresis with laser-induced fluorescence detection. Anal Bioanal Chem. 2009 April; 393(8):2059-66. Briefly, the colon segment is homogenized in 15% iced trichloroacetic acid; for 2 min and stored at 4° C. for 2 h. After centrifuge at 10,000 G for 15 min, the supernatant of each sample is filtered using 0.22 μm filters and extracted with diethyl ether for five times to remove the trichloroacetic acid. The prepared samples are added to derivatization solution (150 mM sodium tetraborate, 25% acetonitrile, 2 mM CFSE) and incubated for […] in dark at room temperature. The 5-HT content is analyzed by capillary electrophoresis with laser-induced fluorescence detection and expressed as nanogram per milligram (wet weight of tissue).

The test system of assay [3] is PI-IBS rats. Description: Mechanical stimuli (CRD)-induced 5-HT release: colonic 5-HT content with or without CRD. The protocol: as §2
To determine whether mechanical stimuli (CRD) can induce colonic 5-HT release in PI-IBS rats, and whether Quercetin has effect on it, 5-HT content in colonic tissue is evaluated in rats with or without AWR test. The colon tissues for 5-HT content determination are collected from the rats from Example 1 and Example 2, and the methods for 5-HT content determination are followed as described in Example 2.

Assay [4] has as its system PI-IBS rats. Description: Colonic EC cell counting (silver staining). The conditions noted are these: 30 mg/kg i.g. The protocol: as §1
Tissue sections (5-μm thick) are deparaffinized and rehydrated for silver staining. Briefly, sections are incubated with 5% ammoniacal silver solution for 4 h at room temperature, then 2 h in 56° C. and subsequently 12 h at room temperature in a dark humidified chamber. After rinsing with water, 5% sodium hyposulfite is added and the tissue sections are incubated for 5 min at room temperature. The brown to black silver precipitate in the cytoplasm of EC cells represents as a positive reaction. A researcher blinded to treatment counted 5 random fields at 200× magnifications for each section, and the number of EC cells per mm^2 of mucosa is quantified using Image J NIH software.

Data on 1 compound can be found in US20130210907A1, “METHOD FOR PREVENTING OR TREATING ENTEROCHROMAFFIN CELL HYPERPLASIA-RELATED DISEASES BY QUERCETIN ADMINISTRATION” (HONG KONG BAPTIST UNIVERSITY, priority 2012, published 2013).

In the case of `O=C1c2ccccc2S(=O)(=O)c2cc(-c3nnn[nH]3)ccc21` [Doxantrazole, reference compound], in assay [1] (30 mg/kg i.g. daily, 2 weeks), the “Pain threshold pressure, after treatment” value is recorded as 29 ± 1.2 mmHg. Also, the “Pain threshold pressure, before treatment” value in assay [1] (30 mg/kg i.g. group, before treatment) was 25 ± 1.3 mmHg. In assay [2], the “Effect on colonic 5-HT content in PI-IBS rats” value is “no marked effects”. In assay [2] (PI-IBS rats, colon), the 5-HT content is 5.75 ± 0.44^ ng/mg. For the same compound, the “5-HT content of tissue, +CRD” value in assay [3] (30 mg/kg i.g., after CRD) stood at 2.62 ± 0.30 ng/mg. The “5-HT content of tissue, -CRD” value in assay [3] (30 mg/kg i.g., without CRD) is listed as 5.75 ± 0.44^ ng/mg. Moreover, the “Decrease of colon tissue 5-HT content after CRD application” value in assay [3] (30 mg/kg, p<0.05) is ~54.4%. Further, in assay [4], the “Effect on colonic EC cells number in PI-IBS rats” value is “no marked effects”. The compound further displayed an EC cell density in assay [4] (PI-IBS rats, colon) of 95 ± 10 Number/mm^2.
